#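 Values below derive from 48-hour exposures of cells grown in 96-well plates, with endpoints linearly interpolated between the two concentrations bracketing the appropriate inhibition level. GI50: concentration for 50% inhibition of growth. TGI: concentration producing complete growth inhibition.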
# How the values were obtained:
# Experiment in all cases: inhibition of tumour cell growth, NCI panel, 48 h
# HL-60(TB) leukemia = system: HL-60(TB) leukemia
# SN12C renal = system: SN12C renal
# OVCAR-4 ovarian = system: OVCAR-4 ovarian
# RPMI-8226 leukemia = system: RPMI-8226 leukemia
# IGROV1 ovarian = system: IGROV1 ovarian
# BT-549 breast = system: BT-549 breast
# EKVX NSCLC = system: EKVX NSCLC
# HOP-92 NSCLC = system: HOP-92 NSCLC
# RXF 393 renal = system: RXF 393 renal
# SF-539 CNS = system: SF-539 CNS
# HOP-62 NSCLC = system: HOP-62 NSCLC
# SR leukemia = system: SR leukemia
# TK-10 renal = system: TK-10 renal
# UACC-257 melanoma = system: UACC-257 melanoma
# MALME-3M melanoma = system: MALME-3M melanoma
# SNB-19 CNS = system: SNB-19 CNS
# HCT-15 colon = system: HCT-15 colon
# HCT-116 colon = system: HCT-116 colon
# M14 melanoma = system: M14 melanoma
# MDA-MB-231 breast = system: MDA-MB-231 breast
# A549 NSCLC = system: A549 NSCLC
# COLO 205 colon = system: COLO 205 colon
# HS 578T breast = system: HS 578T breast
# KM12 colon = system: KM12 colon
# UO-31 renal = system: UO-31 renal
# OVCAR-3 ovarian = system: OVCAR-3 ovarian
# ACHN renal = system: ACHN renal
# A498 renal = system: A498 renal
# HT29 colon = system: HT29 colon
# LOX IMVI melanoma = system: LOX IMVI melanoma
# DU-145 prostate = system: DU-145 prostate
# T-47D breast = system: T-47D breast
# NCI-H522 lung = system: NCI-H522 lung
# SK-OV-3 ovarian = system: SK-OV-3 ovarian
# SK-MEL-28 melanoma = system: SK-MEL-28 melanoma
# MOLT-4 leukemia = system: MOLT-4 leukemia
# K-562 leukemia = system: K-562 leukemia
# SK-MEL-2 melanoma = system: SK-MEL-2 melanoma
# NCI/ADR-RES ovarian = system: NCI/ADR-RES ovarian
# OVCAR-8 ovarian = system: OVCAR-8 ovarian
# NCI-H23 lung = system: NCI-H23 lung
# CAKI-1 renal = system: CAKI-1 renal
# HCC-2998 colon = system: HCC-2998 colon
# PC-3 prostate = system: PC-3 prostate
# NCI-H226 lung = system: NCI-H226 lung
# UACC-62 melanoma = system: UACC-62 melanoma
# SNB-75 CNS = system: SNB-75 CNS
# U251 CNS = system: U251 CNS
# SW-620 colon = system: SW-620 colon
# MDA-MB-435 = system: MDA-MB-435
# SF-295 CNS = system: SF-295 CNS
# SK-MEL-5 melanoma = system: SK-MEL-5 melanoma
smiles,measurement,setting,value
O=C(c1ccccc1)c1nn(-c2ccccc2)c2nc3nc(-c4ccccc4)cc(=O)n3nc12,GI50,HL-60(TB) leukemia,15.2 µM
same,TGI,HL-60(TB) leukemia,42.4 µM
same,GI50,SN12C renal,22.7 µM
same,TGI,SN12C renal,53.2 µM
same,GI50,OVCAR-4 ovarian,22.9 µM
same,TGI,OVCAR-4 ovarian,68.4 µM
same,GI50,RPMI-8226 leukemia,21.4 µM
same,TGI,RPMI-8226 leukemia,50.8 µM
same,GI50,IGROV1 ovarian,25.6 µM
same,TGI,IGROV1 ovarian,> 100 µM
same,GI50,BT-549 breast,21.2 µM
same,TGI,BT-549 breast,52.2 µM
same,GI50,EKVX NSCLC,22.2 µM
same,TGI,EKVX NSCLC,58.2 µM
same,GI50,HOP-92 NSCLC,24.6 µM
same,TGI,HOP-92 NSCLC,78.3 µM
same,GI50,RXF 393 renal,26 µM
same,TGI,RXF 393 renal,> 100 µM
same,GI50,SF-539 CNS,19.2 µM
same,TGI,SF-539 CNS,38.6 µM
same,GI50,HOP-62 NSCLC,38 µM
same,TGI,HOP-62 NSCLC,> 100 µM
same,GI50,SR leukemia,17.6 µM
same,TGI,SR leukemia,40.4 µM
same,GI50,TK-10 renal,40.3 µM
same,TGI,TK-10 renal,> 100 µM
same,GI50,UACC-257 melanoma,30.7 µM
same,TGI,UACC-257 melanoma,61.4 µM
same,GI50,MALME-3M melanoma,0.0477 µM
same,TGI,MALME-3M melanoma,34.6 µM
same,GI50,SNB-19 CNS,42.7 µM
same,TGI,SNB-19 CNS,> 100 µM
same,GI50,HCT-15 colon,36.3 µM
same,TGI,HCT-15 colon,> 100 µM
same,GI50,HCT-116 colon,14.6 µM
same,TGI,HCT-116 colon,28 µM
same,GI50,M14 melanoma,27.3 µM
same,TGI,M14 melanoma,81.4 µM
same,GI50,MDA-MB-231 breast,26.2 µM
same,TGI,MDA-MB-231 breast,> 100 µM
same,GI50,A549 NSCLC,26.5 µM
same,TGI,A549 NSCLC,81.4 µM
same,GI50,COLO 205 colon,26.8 µM
same,TGI,COLO 205 colon,64.1 µM
same,GI50,HS 578T breast,44.6 µM
same,TGI,HS 578T breast,> 100 µM
same,GI50,KM12 colon,28.3 µM
same,TGI,KM12 colon,82.1 µM
same,GI50,UO-31 renal,25.7 µM
same,TGI,UO-31 renal,> 100 µM
same,GI50,OVCAR-3 ovarian,19.9 µM
same,TGI,OVCAR-3 ovarian,49.5 µM
same,GI50,ACHN renal,37.1 µM
same,TGI,ACHN renal,> 100 µM
same,GI50,A498 renal,44.8 µM
same,TGI,A498 renal,> 100 µM
same,GI50,HT29 colon,24.7 µM
same,TGI,HT29 colon,64.2 µM
same,GI50,LOX IMVI melanoma,25.8 µM
same,TGI,LOX IMVI melanoma,78.7 µM
same,GI50,DU-145 prostate,23.8 µM
same,TGI,DU-145 prostate,58.2 µM
same,GI50,T-47D breast,28.9 µM
same,TGI,T-47D breast,99.5 µM
same,GI50,NCI-H522 lung,20.6 µM
same,TGI,NCI-H522 lung,58.5 µM
same,GI50,SK-OV-3 ovarian,62.2 µM
same,TGI,SK-OV-3 ovarian,> 100 µM
same,GI50,SK-MEL-28 melanoma,37.8 µM
same,TGI,SK-MEL-28 melanoma,> 100 µM
same,GI50,MOLT-4 leukemia,21.8 µM
same,TGI,MOLT-4 leukemia,49.3 µM
same,GI50,K-562 leukemia,21.2 µM
same,TGI,K-562 leukemia,66.7 µM
same,GI50,SK-MEL-2 melanoma,23.8 µM
same,TGI,SK-MEL-2 melanoma,65.6 µM
same,GI50,NCI/ADR-RES ovarian,26.2 µM
same,TGI,NCI/ADR-RES ovarian,74.5 µM
same,GI50,OVCAR-8 ovarian,27.1 µM
same,TGI,OVCAR-8 ovarian,84.8 µM
same,GI50,NCI-H23 lung,33.1 µM
same,TGI,NCI-H23 lung,> 100 µM
same,GI50,CAKI-1 renal,68 µM
same,TGI,CAKI-1 renal,> 100 µM
same,GI50,HCC-2998 colon,32.6 µM
same,TGI,HCC-2998 colon,60.2 µM
same,GI50,PC-3 prostate,32.4 µM
same,TGI,PC-3 prostate,> 100 µM
same,GI50,NCI-H226 lung,47.4 µM
same,TGI,NCI-H226 lung,> 100 µM
same,GI50,UACC-62 melanoma,29.4 µM
same,TGI,UACC-62 melanoma,89.2 µM
same,GI50,SNB-75 CNS,36.1 µM
same,TGI,SNB-75 CNS,> 100 µM
same,GI50,U251 CNS,32.6 µM
same,TGI,U251 CNS,> 100 µM
same,GI50,SW-620 colon,33.1 µM
same,TGI,SW-620 colon,> 100 µM
same,GI50,MDA-MB-435,18.1 µM
same,TGI,MDA-MB-435,48.3 µM
same,GI50,SF-295 CNS,19.9 µM
same,TGI,SF-295 CNS,53 µM
same,GI50,SK-MEL-5 melanoma,13.6 µM
same,TGI,SK-MEL-5 melanoma,27.1 µM
